In patent publication US9999222B2, “Herbicidal combination comprising azines” (BASF SE, priority 2014, dated 2018):
Like-named read-outs stand apart in the source and are kept apart here.

Legend:
Experiment in all cases: Greenhouse test, pre-emergence treatment
ABUTH = format: in vivo, Abutilon theophrasti; conditions: Abutilon theophrasti, 480 h
Summary of the method: (§1)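 Damage was rated on a 0-100 scale, with 100 meaning no emergence or full destruction of aerial parts. Observed combination effects were set against the additive Colby expectation E=X+Y−(X·Y/100). Spray liquor was water-based, from 10% emulsion concentrates, applied pre-emergence right after sowing in loamy sand (about 3.0% humus). Plants were held at 10-25 °C or 20-35 °C for 2 to 4 weeks.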

ALOMY = format: in vivo, Alopecurus myosuroides; conditions: Alopecurus myosuroides, pre-emergence, 480 h, pre-emergence, read-out: observed % activity 20 DAT; for inhibition at 50 g/ha: use rate 50 g ai/ha; for inhibition at 100 g/ha: use rate 100 g ai/ha
From the text: (§2) The culture containers used were plastic flowerpots containing loamy sand with approximately 3.0% of humus as the substrate. The seeds of the test plants were sown separately for each species.
(§3) For the pre-emergence treatment, the active ingredients, which had been suspended or emulsified in water, were applied directly after sowing by means of finely distributing nozzles. The containers were irrigated gently to promote germination and growth and subsequently covered with transparent plastic hoods until the plants had rooted. This cover caused uniform germination of the test plants, unless this had been impaired by the active ingredients.
(§4) Depending on the species, the plants were kept at 10-25° C. or 20-35° C., respectively.
(§5) The test period extended over 2 to 4 weeks. During this time, the plants were tended, and their response to the individual treatments was evaluated.
(§6) Evaluation was carried out using a scale from 0 to 100. 100 means no emergence of the plants, or complete destruction of at least the aerial moieties, and 0 means no damage, or normal course of growth. A moderate herbicidal activity is given at values of at least 60, a good herbicidal activity is given at values of at least 70, and a very good herbicidal activity is given at values of at least 85.
(§7) The respective stated components a and b, and if appropriate, c were formulated as a 10% by weight strength emulsion concentrate and, with addition of the amount of solvent system, introduced into the spray liquor used for applying the active compound.
(§8) In the examples, the solvent used was water.
(§9) In the examples below, using the method of S. R. Colby (1967) “Calculating synergistic and antagonistic responses of herbicide combinations”, Weeds 15, p. 22ff., the value E, which is expected if the activity of the individual active compounds is only additive, was calculated. E=X+Y−(X·Y/100) where • X=percent activity using active compound a at an application rate A; • Y=percent activity using active compound b at an application rate B; • E=expected activity (in %) by a+b at application rates A+B.
(§10) If the value found experimentally is higher than the value E calculated according to Colby, a synergistic effect is present.

APESV = format: in vivo, Apera spica-venti; conditions: Apera spica-venti, 480 h, read-out: observed % activity 20 DAT
From the text: as §2, §3, §4, §5, §6, §7, §8, §9, §10

ECHCG = format: in vivo, Echinocloa crus-galli; conditions: Echinochloa crus-galli, 480 h, ECHCG, use rate 50 g ai/ha, 20 DAT, read-out: observed % activity 20 DAT
From the text: as §2, §3, §4, §5, §6, §7, §8, §9, §10

POLCO = format: in vivo, Polygonum convolvulus; conditions: Fallopia convolvulus, pre-emergence, 480 h; for inhibition at 50 g/ha: use rate 50 g ai/ha
Summary of the method: as §1

ANTAR = format: in vivo; conditions: Anthemis arvensis, 480 h, 20 DAT, read-out: observed % activity
Summary of the method: as §1

COMBE = format: in vivo, Commelina benghalensis; conditions: Commelina benghalensis, pre-emergence, 480 h
Summary of the method: as §1

EPHHL = format: in vivo, Euphorbia heterophylla; conditions: Euphorbia heterophylla, pre-emergence, 480 h, read-out: observed % activity 20 DAT
Summary of the method: as §1

GERPU = format: in vivo, Geranium pusillum; conditions: Geranium pusillum, pre-emergence, 480 h
Summary of the method: as §1

KCHSC = format: in vivo, Kochia scoparia; conditions: Bassia scoparia, pre-emergence, 480 h, pre-emergence, read-out: observed % activity 20 DAT
Summary of the method: as §1

LOLMU = format: in vivo, Lolium multiflorum; conditions: Lolium multiflorum, pre-emergence, 480 h, pre-emergence, read-out: observed % activity 20 DAT
From the text: as §2, §3, §4, §5, §6, §7, §8, §9, §10

IPOHE = format: in vivo, Ipomoea hederacea; conditions: Ipomoea hederacea, 480 h, IPOHE, individual, read-out: observed % activity 20 DAT
Summary of the method: as §1

SIDRH = format: in vivo, Sida rhombifolia; conditions: Sida rhombifolia, pre-emergence, 480 h
Summary of the method: as §1

CENCY = format: in vivo; conditions: 480 h, individual, read-out: observed % activity 20 DAT
[1] = 20 g ai/ha, 20 DAT, read-out: observed % activity
[2] = 40 g ai/ha, 20 DAT, read-out: observed % activity
[3] = read-out: observed % activity 20 DAT

Molecule COc1c(Cl)ccc(Cl)c1C(=O)O [DICAMBA, dicamba] has an inhibition at 20 g/ha (ABUTH; [1]) of 60%, an inhibition at 40 g/ha (ABUTH; [2]) of 80% and an inhibition at 35 g/ha (ABUTH; ABUTH, individual, use rate 35 g ai/ha, read-out: observed % activity 20 DAT) of 0%. For the same molecule, the inhibition at 70 g/ha (ABUTH; ABUTH, individual, use rate 70 g ai/ha, read-out: observed % activity 20 DAT) was 20%, the inhibition at 50 g/ha (ALOMY; ALOMY, 20 DAT) was 20% and the inhibition at 100 g/ha (ALOMY; ALOMY, 20 DAT) was 40%. For the same molecule, the inhibition at 50 g/ha (ALOMY) was 20%, the inhibition at 100 g/ha (ALOMY) was 40% and the inhibition at 100 g/ha (APESV) was 35%. It also gave an inhibition at 50 g/ha (ECHCG) of 0%, an inhibition at 20 g/ha (POLCO; [1]) of 35% and an inhibition at 40 g/ha (POLCO; [2]) of 90%. It also gave an inhibition at 50 g/ha (POLCO; POLCO, 20 DAT, read-out: observed % activity 20 DAT) of 40%, an inhibition at 50 g/ha (POLCO; [3]) of 40% and an inhibition at 100 g/ha (POLCO; use rate 100 g ai/ha, read-out: observed % activity 20 DAT) of 60%. The inhibition at 20 g/ha (ANTAR; 20 g ai/ha) was 30%, the inhibition at 40 g/ha (ANTAR; 40 g ai/ha) was 30% and the inhibition at 20 g/ha (COMBE; [1]) was 45%. It also gave an inhibition at 40 g/ha (COMBE; [2]) of 65%, an inhibition at 70 g/ha (COMBE; COMBE, individual, use rate 70 g ai/ha, read-out: observed % activity 20 DAT) of 50% and an inhibition at 35 g/ha (COMBE; [3]) of 15%. The inhibition at 35 g/ha (EPHHL) was 20%, the inhibition at 20 g/ha (GERPU; [1]) was 20% and the inhibition at 40 g/ha (GERPU; [2]) was 85%. The inhibition at 35 g/ha (GERPU; GERPU, individual, use rate 35 g ai/ha, read-out: observed % activity 20 DAT) was 40%, the inhibition at 100 g/ha (KCHSC; use rate 100 g ai/ha) was 90% and the inhibition at 35 g/ha (KCHSC) was 75%. It also gave an inhibition at 50 g/ha (KCHSC) of 85%, an inhibition at 70 g/ha (KCHSC) of 75% and an inhibition at 50 g/ha (LOLMU; LOLMU, use rate 50 g ai/ha, 20 DAT) of 40%. For the same molecule, the inhibition at 100 g/ha (LOLMU) was 45%, the inhibition at 35 g/ha (IPOHE; use rate 35 g ai/ha) was 40% and the inhibition at 70 g/ha (IPOHE; use rate 70 g ai/ha) was 40%. For the same molecule, the inhibition at 20 g/ha (SIDRH; [1]) was 45%, the inhibition at 40 g/ha (SIDRH; [2]) was 80% and the inhibition at 35 g/ha (SIDRH; SIDRH, individual, use rate 35 g ai/ha, read-out: observed % activity 20 DAT) was 20%. The inhibition at 70 g/ha (SIDRH; [3]) was 15%, the inhibition at 35 g/ha (CENCY; use rate 35 g ai/ha) was 0% and the inhibition at 70 g/ha (CENCY; use rate 70 g ai/ha) was 30%.
